{
  "source": "paper PMC5259734",
  "about": "“Identification of Key Residues for Urate Specific Transport in Human Glucose Transporter 9 (hSLC2A9)” (Scientific Reports, 2017)",
  "format_in_all_cases": "cell-based",
  "key": {"[1]": {"biological_target": "T1, hSLC2A9b (human glucose transporter 9) (Homo sapiens, UniProt Q9NRM0)", "T1 construct": "gene SLC2A9; hSLC2A9b isoform (shorter N-terminus), WT", "T1 sequence (Q9NRM0 1-511 isoform Q9NRM0-2 limits assumed)": "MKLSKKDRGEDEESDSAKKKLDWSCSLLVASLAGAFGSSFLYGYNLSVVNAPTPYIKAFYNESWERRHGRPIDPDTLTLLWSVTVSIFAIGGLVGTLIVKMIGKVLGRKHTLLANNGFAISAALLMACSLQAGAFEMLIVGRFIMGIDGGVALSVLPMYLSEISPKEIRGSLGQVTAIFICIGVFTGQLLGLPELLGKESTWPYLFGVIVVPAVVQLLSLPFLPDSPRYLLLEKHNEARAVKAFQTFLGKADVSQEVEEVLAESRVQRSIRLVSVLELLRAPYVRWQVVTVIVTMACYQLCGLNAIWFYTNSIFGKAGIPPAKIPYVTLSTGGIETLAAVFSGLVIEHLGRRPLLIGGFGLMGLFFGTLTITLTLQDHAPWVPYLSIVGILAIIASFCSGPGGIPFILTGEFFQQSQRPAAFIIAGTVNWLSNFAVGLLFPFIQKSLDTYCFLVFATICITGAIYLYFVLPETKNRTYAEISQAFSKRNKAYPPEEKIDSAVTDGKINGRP", "assay": "[…] urate flux kinetics and TEVC in Xenopus oocytes"}, "[2]": {"biological_target": "T1, hSLC2A9b (human glucose transporter 9)", "assay": "[…] fructose uptake in Xenopus oocytes"}, "[3]": {"biological_target": "T1, hSLC2A9b (human glucose transporter 9)", "assay": "TEVC inhibition of urate-induced current and […] urate flux in Xenopus oocytes"}},
  "data": [
    {"smiles": "O=c1[nH]c(=O)c2[nH]c(=O)[nH]c2[nH]1", "note": "[urate]", "values": [
      {"measurement": "14C urate flux kinetics and TEVC in Xenopus oocytes", "setting": "[1]", "value": "both WT hSLC2A9b and its cysteine mutants exhibited Michaelis-Menten type kinetics for urate transport"}
    ]},
    {"smiles": "OC[C@H]1OC(O)(CO)[C@@H](O)[C@@H]1O", "note": "(stereo partly drawn) [fructose]", "values": [
      {"measurement": "14C fructose uptake in Xenopus oocytes", "setting": "[2]", "value": "all mutants transported fructose similarly as WT hSLC2A9b"}
    ]},
    {"smiles": "O=S(=O)(O)c1cc[c]([Hg][Cl])cc1", "note": "[pCMBS]", "values": [
      {"measurement": "IC50", "setting": "[3]", "value": 52.5, "unit": "µM"}
    ]}
  ]
}
